The results in this text go back to patent publication US4192889A, “Ruminant feeds containing trichloroethyl esters of essential amino acids” (E. R. Squibb & Sons, Inc., priority 1979, dated 1980).

Assay [1] concerns volatile fatty acid concentrations in the in vitro rumen fermentation. Put plainly: in vitro rumen fermentation, volatile fatty acids (alfalfa hay:concentrate 3:1). Set-up: species or system sheep. The note with it: for Acetic / Acetic Propionic (ratio) / Propionic / Total Acids / butyric: Table 10, 0.2 mg/ml. The source says: Based on the knowledge of the foregoing, a practical method of testing growth promoters in vitro has been the simulation of conditions in the rumen with fermentation reactions. Such a method comprises adding the test substance to a substrate such as ground hay, corn or mixtures of feed materials. Rumen fluid from a fasted ruminant (bovine, ovine, or caprine) is mixed with a buffer solution and added to a fermentation flask containing the test additive and the substrate. The flask is purged of oxygen, stoppered with a pressure release valve, and incubated at 39°±1° C. for periods up to 48 hours. The change in volatile fatty acid concentration is determined by chemical analysis of the rumen fluid before and after fermentation. As a control, the above experiment is run without a test additive.
(§1) A one gram sample of substrate ground through a 1 mm screen is weighted into 100 ml. lipless beakers equipped with gas-release valves. The substrate consists of alfalfa hay containing approximately 16% protein and a concentrate containing ground corn 60.7%, alfalfa meal 17.5%, molasses 10.0%, soybean meal 5.3%, wheat bran 5.0%, trace mineralized salt 1.0%, limestone 0.5% and Vitamin D 300,000 I.U./ton, mixed in the proportion 3:1. The experimental composition is added to the substrate. 25 ml. of filtered rumen fluid obtained from fasted sheep maintained on feed the same as the above mentioned substrate and 25 ml. of McDougal's buffer solution serve as the inoculum. The buffer solution is as follows:
(§2) The fermentation mixture is flushed with carbon dioxide and the vessel is capped with a gas release valve. The fermentation vessel (beaker) is placed in a water bath and incubated at 39° C.±1° for six hours. The sample is mixed every hour by shaking the beaker.
(§3) At the end of the 6-hour fermentation period the sample is strained through 4 layers of cheesecloth into a sample bottle containing 1 ml. saturated solution of mercuric chloride. The sample is frozen immediately until analyzed for the volatile fatty acids (VFA) (mg/100 ml.). Prior to analysis, each sample is acidified with 30% phosphoric acid and then analyzed by gas chromatography using a column containing 5% nonylphenoxypolyoxyethylene ethanol plus 0.5% phosphoric acid on 100-120 mesh Gas Chrom S. The acids determined are acetic, propionic, butyric, isobutyric, valeric and isovaleric acids. Total VFA is considered as the addition of these acids. The ratio of acetic:propionic (A:P) is obtained by dividing the concentration of acetic acid by that of propionic acid.
The effect of various compounds alone on the volatile fatty acid concentrations was determined by the procedure of Example 3. […] A direct comparison between phenylalanine and phenylalanine trichloroethyl ester is provided.

The test system is the same in assay [2]. Put plainly: in vitro rumen fermentation, volatile fatty acids (high concentrate substrate, alfalfa hay:concentrate 1:3). Set-up: species or system sheep. The protocol: as §1, §2, §3
The procedure is described in Example 3. In this example, however, the substrate consisted of alfalfa hay and concentrate in the ratio of 1:3 and inoculum was obtained from sheep fed alfalfa and concentrate in the ratio of 1:3. The concentrate (Fit-N-Fresh)is commercially available from Agway, Inc. and contains grain products, plant protein products, processed grain by-products, cane molasses, minerals, vitamins and a preservative.
The 2,2,2-trichloroethyl ester of glycine was tested in vitro in a manner similar to that described in Example 4.

Assay [3] has as its system volatile fatty acid concentrations in fistulated sheep. Put plainly: volatile fatty acid concentrations in vivo in sheep with rumen fistulae (227 g concentrate + 680 g alfalfa hay). Set-up: species or system sheep (wethers). The note with it: for acetic:propionic ratio (in words) / proportion of propionic acid (in words): fistulated sheep; for Total acids (mg/100 ml.): Table 3, treatment day 7. The text has this: (§4) Mature sheep (wethers) fitted with permanent rumen fistulae were used to determine the effect of L-phenylalanine, 2,2,2-trichloroethyl ester on volatile fatty acid concentrations in vivo (3 wethers per treatment). The animals were individually penned and fed 227 g. of concentrate (described in Example 3) and 680 g. of alfalfa hay once daily. The test compound was admixed with the concentrate. The sheep were medicated for 7 days. Samples for analysis were obtained before (Day 0) and after treatment (Day 7) approximately 6 hours after feeding.

A short description of assay [4]: body weight gain and feed efficiency of growing lambs. Type of assay: in vivo, lambs (wether and ewe). The protocol:
A test was conducted to determine if feeding L-phenylalanine 2,2,2-trichloroethyl ester to growing lambs was effective in improving growth and feed efficiency. Wether and ewe lambs were divided into groups of 30 lambs each. They were acclimated to their pens for 2 weeks prior to treatment.
The feed supplied to the animals had the following composition
The test compound in an amount of 0.0055% (50 g/ton) was admixed with the above feed composition.
Body weights and feed consumption were recorded at 0, 2, 4 and 6 weeks. Feed efficiencies were calculated.
The test procedure of Example 9 was followed to test the growth effect and feed efficiency of glycine 2,2,2-trichloroethyl ester on growing lambs. The feed composition of Example 9 was used but contained glycine 2,2,2-trichloroethyl ester in an amount of 0.0044% (40 g/ton). There were 44 lambs in the control group receiving the feed composition without additive and 42 lambs receiving the feed composition containing the amino acid ester.
The test procedure of Example 9 was followed to test the growth effect and feed efficiency of L-phenylalanine 2,2,2-trichloroethyl ester on growing lambs. The feed composition of Example 9 was used but contained 0.0088% (80 g/ton) of this amino acid ester. There were 59 lambs in the control group fed the feed without additive and 58 lambs in the group fed the feed composition containing the test compound.

Assay [5] relates to volatile fatty acid concentrations in the rumen of fistulated wethers. As to the kind of experiment: volatile fatty acid concentrations in the rumen of fistulated wethers (454 g concentrate + 454 g chopped mixed hay). To be noted: for Total acids (mg/100 ml): Table 4, treatment day 7. In kind it is in vivo, sheep (wethers).
Description: as §4
An experiment similar to that described in Example 5 was performed except that the animals (3 per treatment) were fed 454 g. of concentrate (described in Example 3) and 454 g. of chopped mixed (grasses) hay.

Setting [6] is: fistulated wethers, concentrate/mixed hay diet.

On to `N[C@@H](Cc1ccc(Cl)cc1)C(=O)O` (racemic) [p-chlorophenylalanine], for which, in assay [1], the Acetic was 91 % of Control, the “Acetic Propionic (ratio)” value was 101 % of Control, the Propionic was 91 % of Control and the “Total Acids” value is given as 91 % of Control. The butyric in assay [1] is on record as 92 % of Control.
For the compound `NCC(=O)OCC(Cl)(Cl)Cl` [2,2,2-trichloroethyl ester of glycine, aminoacetic acid 2,2,2-trichloroethyl ester], the “acetic:propionic ratio (in words)” value in assay [2] and in assay [3] was “decreasing the acetic:propionic ratio” each time. Further, the “propionic acid concentration (in words)” value in assay [2] is “effective in increasing propionic acid concentration”. Besides, in assay [3] (Table 6, 500 mg/head/day, treatment), the “Total acid (mg/100 ml)” value came out at 731 mg/100 ml. Besides, in assay [3], the “proportion of propionic acid (in words)” value is “effective in increasing the proportion of propionic acid”. Moreover, the “Weight gain” value amounted to 2.31 kg in assay [4] (Table 8, 0.0044% (40 g/ton) in feed, 0-2 wks, control 2.32); 5.13 kg in assay [4] (Table 8, 0.0044% (40 g/ton) in feed, 0-4 wks, control 5.09); 7.37 kg in assay [4] (Table 8, 0.0044% (40 g/ton) in feed, 0-6 wks, control 7.18). This compound had a Feed efficiency gain/feed in assay [4] (Table 8, 0.0044% (40 g/ton) in feed, 0-6 wks, control 0.148) of 0.154 gain/feed.
With `N[C@@H](Cc1ccccc1)C(=O)OCC(Cl)(Cl)Cl` [L-Phenylalanine 2,2,2-trichloroethyl ester], the “acetic to propionic acid ratio (in words)” value in assay [1] (at all levels) is “decreasing the acetic to propionic acid ratio”. Moreover, in assay [1] (at all levels), the “propionic acid concentrations (in words)” value was “effective in increasing the propionic acid concentrations”. The figures for the “acetic:propionic ratio (in words)” value in assay [2], in assay [3] and in assay [5] (setting [6]) were “decreasing the acetic:propionic ratio”, “decreased the acetic:propionic ratio” and “decreasing the acetic:propionic ratio”, respectively. For the same compound, the “propionic acid concentration (in words)” value in assay [2] is reported as “effective in increasing the propionic acid concentration”. In addition, the “Total acids (mg/100 ml.)” value in assay [3] (200 mg/head/day) is listed as 667 mg/100 ml; in assay [3] (500 mg/head/day), 624 mg/100 ml. The “proportion of propionic acid (in words)” value is listed as “increased the proportion of propionic acid” in assay [3] and “effective in increasing the proportion of propionic acid” in assay [5] (setting [6]). Moreover, the results for the “Total acids (mg/100 ml)” value in assay [5] (200 mg/head/day) and in assay [5] (500 mg/head/day) were 663 mg/100 ml and 734 mg/100 ml, respectively. The “feed efficiency of growing lambs (in words)” value in assay [4] (0.0055% (50 g/ton) in the feed) is “improving feed efficiency”. Further, the “gains of growing lambs (in words)” value in assay [4] (0.0055% (50 g/ton) in the feed) is given as “effective in increasing gains”. Moreover, the “Body weight gain” value is on record as 2.97 kg in assay [4] (Table 7, 0.0055% (50 g/ton) in feed, 0-2 wks., control 2.47); 5.82 kg in assay [4] (Table 7, 0.0055% (50 g/ton) in feed, 0-4 wks., control 5.80); 9.08 kg in assay [4] (Table 7, 0.0055% (50 g/ton) in feed, 0-6 wk., control 8.51). Moreover, in assay [4] (Table 7, 0.0055% (50 g/ton) in feed, 0-6 wks., control 0.190), the “Feed efficiency (gain/unit of feed)” value was 0.196 gain/unit of feed. The “Weight gain” value in assay [4] (Table 9, 0.0088% (80 g/ton) in feed, 0-2 wks, control 1.50) is listed as 1.49 kg; in assay [4] (Table 9, 0.0088% (80 g/ton) in feed, 0-4 wks, control 4.44), 4.63 kg; in assay [4] (Table 9, 0.0088% (80 g/ton) in feed, 0-6 wks, control 7.56), 7.81 kg. The Feed efficiency gain/feed in assay [4] (Table 9, 0.0088% (80 g/ton) in feed, 0-6 wks, control 0.160) is listed as 0.168 gain/feed.
Take `N[C@@H](Cc1ccccc1)C(=O)O` [L-phenylalanine]: in assay [1], the Acetic is listed as 95 % of Control, the “Acetic Propionic (ratio)” value is on record as 100 % of Control, the Propionic was 94 % of Control and the “Total Acids” value is reported as 96 % of Control. Also, in assay [1], the butyric is 97 % of Control.
`O=CC(Cl)(Cl)Cl` [chloral]: in assay [1], the Acetic was 88 % of Control, the “Acetic Propionic (ratio)” value is recorded as 80 % of Control, the Propionic is listed as 110 % of Control and the “Total Acids” value is listed as 96 % of Control. Besides, the butyric in assay [1] is 110 % of Control.
